Laboratory results from ChEMBL document CHEMBL2311510, “A new single-photon emission computed tomography (SPECT) imaging agent for serotonin transporters: [(125)I]Flip-IDAM, (2-((2-((dimethylamino)methyl)-4-iodophenyl)thio)phenyl)methanol” (Bioorg Med Chem Lett, 2013).

Experiments:
[1] = target: T1, Sodium-dependent serotonin transporter (Homo sapiens, UniProt P31645); assay: Binding affinity to SERT (unknown origin)
Target sequence in this assay (P31645 whole entry): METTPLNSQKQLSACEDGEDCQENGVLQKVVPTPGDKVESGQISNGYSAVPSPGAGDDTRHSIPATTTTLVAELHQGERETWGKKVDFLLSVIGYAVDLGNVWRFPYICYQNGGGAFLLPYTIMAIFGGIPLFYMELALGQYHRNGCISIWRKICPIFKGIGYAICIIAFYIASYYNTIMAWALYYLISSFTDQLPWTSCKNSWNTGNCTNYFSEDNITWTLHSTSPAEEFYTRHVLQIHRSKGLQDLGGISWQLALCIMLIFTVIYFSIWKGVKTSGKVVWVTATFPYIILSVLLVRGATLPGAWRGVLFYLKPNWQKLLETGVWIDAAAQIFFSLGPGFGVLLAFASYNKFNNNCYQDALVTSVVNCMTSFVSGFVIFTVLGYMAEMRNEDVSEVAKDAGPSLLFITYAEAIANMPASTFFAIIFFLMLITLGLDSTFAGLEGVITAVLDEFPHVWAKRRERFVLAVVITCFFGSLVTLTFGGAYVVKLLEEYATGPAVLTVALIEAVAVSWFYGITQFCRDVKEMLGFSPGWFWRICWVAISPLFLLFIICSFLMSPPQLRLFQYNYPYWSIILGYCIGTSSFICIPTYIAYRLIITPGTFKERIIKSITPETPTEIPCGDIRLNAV

Nucleic Acid = assay: Ratio of drug level in hypothalamus to cerebellum in rat measured 60 mins compound dose; type: ADME, tissue-based; details: in vivo, 1 h
[2] = target: T1, Sodium-dependent serotonin transporter; assay: Potency index, ratio of Ki of Flip-ADAM to Ki of compound for SERT (unknown origin)
Target sequence in this assay (P31645 whole entry, looked up): as the sequence (P31645 whole entry) above

[3] = target: T1, Sodium-dependent serotonin transporter; assay: biochemical; type: cell-based, LLC-PK1
Target sequence in this assay (P31645 whole entry): as above
Description: Inhibition of [125I]IDAM uptake at SERT (unknown origin) expressed in LLC-PK1 cell membranes

[4] = target: T1, Sodium-dependent serotonin transporter; assay: Potency index, ratio of Ki of IDAM to Ki of compound for SERT (unknown origin)
Target sequence in this assay (P31645 whole entry, looked up): as the sequence (P31645 whole entry) above

[5] = target: T1, Sodium-dependent serotonin transporter; assay: Inhibition of […] uptake at SERT (unknown origin) expressed in LLC-PK1 cell membranes; type: cell-based
Target sequence in this assay (P31645 whole entry): as above

SMILES: CN(C)Cc1ccccc1Sc1ccc([123I])cc1CO
- Ki [1]: 0.097 nM
- Ratio (Nucleic Acid): 2.76

SMILES: CN(C)Cc1ccccc1Sc1ccc([123I])cc1N
- Ki [1]: 0.013 nM

SMILES: CN(C)Cc1cc(I)ccc1Sc1ccccc1CO
- Ratio Ki [2]: 33
- Ki [3]: 0.03 nM
- Ratio Ki [4]: 3

SMILES: O=C(OCCF)[C@H]1[C@@H](c2ccc(/C=C\I)cc2)C[C@H]2CC[C@H]1N2
- Ki [1]: 0.08 nM

SMILES: CN(C)Cc1cc(I)ccc1Sc1ccccc1N
- Ki [3]: 1 nM

SMILES: CN(C)Cc1ccccc1Sc1ccc(I)cc1CO
- Ki [5]: 0.1 nM
